Laboratory results: patent US20190017060A1, “MANIPULATION OF PROANTHOCYANIDIN (PA) COMPOSITION BY AFFECTING ANTHOCYANIDIN SYNTHASE (ANS) AND LEUCOANTHOCYANIDIN DIOXYGENASE (LDOX)” (University of North Texas, priority 2017, published 2019)

Key:
Assay type in all cases: biochemical, Medicago truncatula
ANS = test: Enzyme assay with recombinant ANS protein, HPLC detection of cyanidin; conditions: 50 μg recombinant protein, 1 h at 30° C., HPLC at 530 nm; flavan-3-ols at 200 μM
Procedure: (§1) The full length ANS and LDOX cDNAs were cloned into pMal-c5x vector (New England Biolabs) at the SalI and BamHI site and BamHI and EcoRI site, respectively. The expression constructs were transformed into E. coli strain NEB® Express Competent E. coli (New England Biolabs). Transformed bacteria were grown in LB medium supplemented with 0.2% glucose to OD 600 of 0.5, and IPTG was added at 0.3 mM to induce protein expression. Bacteria were harvested after 4 h induction. ANS and LDOX proteins were purified with amylose resin (NEB, E8021) following the manufacturer's protocol. Briefly, bacteria were lysed by sonication at 4° C. in extraction buffer (20 mM Tris pH 7.0, 200 mM NaCl, 1 mM DTT). The bacterial lysates were centrifuged at 12,000 g for 15 min at 4° C. The supernatants were loaded on amylose resin which was washed with wash buffer (extraction buffer). Finally, proteins were eluted by elution buffer (20 mM Tris pH 7.0, 200 mM NaCl, 1 mM DTT, 10 mM maltose). Purified proteins were concentrated with an Amicon® Ultra-4 Centrifugal Filter (Millipore) and aliquoted to store at −80° C.
(§2) It was previously reported that ANS can convert leucocyanidin to cyanidin. To confirm this, separate enzyme reactions were set up for ANS and LDOX by incubating with leucocyanidin according to Tanner et al. The enzyme reaction was prepared in 100 μL volume including 20 mM potassium phosphate buffer (pH 7.0), 1 mM 2-oxoglutarate, 0.4 mM ammonium iron(II) sulfate, 4 mM sodium ascorbate, 100 mM NaCl, 10 mM maltose, 5 mM DTT and 50 μg recombinant proteins. The reactions were carried out for 1 h at 30° C. and terminated by addition of 1 μL 36% HCl and 10 μL 100% methanol. The reaction mixture was centrifuged for 5 min at 13,000 rpm at 4° C. and analyzed by HPLC. All reverse-phase HPLC analyses were performed on an Agilent HP1100 HPLC using the following gradient: solvent A (1% phosphoric acid) and B (acetonitrile) at 1 ml/min flow rate: 0-5 min, 5% B; 5-10 min, 5-10% B; 10-25 min, 10-17% B; 25-30 min, 17-23% B; 30-65 min, 23-50% B; 65-79 min, 50-100% B; 79-80 min, 100-5% B. Data were collected at 280 and 530 nm for flavonoids and anthocyanidins, respectively. Identifications were based on chromatographic behavior and UV spectra compared with those of authentic standards.
(§3) Since catechin was highly accumulated in the ldox mutant, it was tested whether ANS or LDOX protein can react with (+)-catechin (2R, 3S), which is stated as a naturally synthesized monomeric unit of PAs. The same enzyme reaction was set up but using 200 μM of (+)-catechin as substrate instead of leucocyanidin. Reactions without 2-oxoglutarate (-oxo) were run as negative controls. […] The enzyme reaction was performed with (+)-catechin as substrate and recombinant ANS or LDOX protein. Arrowhead indicates the peak for cyanidin (Cy) standard. Reactions without 2-oxoglutarate were run as negative controls and are denoted as -oxo. […] The enzyme assay was performed with (−)-catechin, (−)-epicatechin or (+)-epicatechin as substrate and purified recombinant ANS or LDOX protein. The substrate in each reaction is indicated. (−)-cat, (−)-catechin; (−)-epi, (−)-epicatechin; (+)-epi, (+)-epicatechin. […] The gray arrow denotes the catalyzed reaction in vitro. The proteins used are indicated in each chromatogram.

LDOX = test: Enzyme assay with recombinant LDOX protein, HPLC detection of cyanidin; conditions: 50 μg recombinant protein, 1 h at 30° C., HPLC at 530 nm; flavan-3-ols at 200 μM
Procedure: as §1, §2, §3

ANS and ANR proteins = test: Combined enzyme reaction of ANS with ANR; conditions: 200 μM substrate, 10 mM NADPH, 50 μg ANS and ANR proteins, HPLC at 280 nm
Procedure: as §2
(§4) Next, the combined reaction of ANS or LDOX with ANR was tested to check if (+)-catechin can be converted to (−)-epicatechin, which is the almost exclusive monomer unit of PA polymers in Medicago truncatula. […]

LDOX and ANR proteins = test: Combined enzyme reaction of LDOX with ANR; conditions: 200 μM substrate, 10 mM NADPH, 50 μg LDOX and ANR proteins, HPLC at 280 nm
Procedure: as §2, §4

in vitro conversion of substrate to cyanidin by ANS (ANS)	in vitro conversion of substrate to cyanidin by LDOX (LDOX)	(+)-catechin converted to epicatechin (ANS and ANR proteins)	(+)-catechin converted to epicatechin (LDOX and ANR proteins)	Compound
No cyanidin generation was detected	No cyanidin generation was detected			Oc1cc(O)c2c(c1)O[C@@H](c1ccc(O)c(O)c1)[C@@H](O)C2 [(+)-epicatechin]
No cyanidin generation was detected	No cyanidin generation was detected			Oc1cc(O)c2c(c1)O[C@H](c1ccc(O)c(O)c1)[C@H](O)C2 [(−)-epicatechin]
No cyanidin generation was detected	No cyanidin generation was detected			(−)-catechin

Compound	in vitro conversion of substrate to cyanidin by ANS (ANS)	in vitro conversion of substrate to cyanidin by LDOX (LDOX)	(+)-catechin converted to epicatechin (ANS and ANR proteins)	(+)-catechin converted to epicatechin (LDOX and ANR proteins)
Oc1cc(O)c2c(c1)O[C@H](c1ccc(O)c(O)c1)[C@@H](O)C2 [(+)-catechin]	catalyze the in vitro conversion of (+)-catechin to cyanidin	catalyze the in vitro conversion of (+)-catechin to cyanidin	more than 70%	more than 70%
Oc1cc(O)c2c(c1)OC(c1ccc(O)c(O)c1)C(O)C2O (stereo not drawn) [leucocyanidin]	catalyzed in vitro conversion of leucocyanidin to cyanidin	catalyzed in vitro conversion of leucocyanidin to cyanidin		
